Data on 14 molecules can be found in patent US10611740B2, “Aryl dihydro-2H-benzo[b][1,4]oxazine sulfonamide and related compounds for use as agonists of RORγ and the treatment of disease” (Lycera Corporation, priority 2015, dated 2020).

The target of the first assay is T1, Gal4-RORγ-LBD (Homo sapiens, UniProt P51449).
T1 construct: expressed in transfected cells; host or cells: HEK-293 cells (pcDNA3.1neo plasmid)
T1 sequence (P51449 269-508 limits assumed): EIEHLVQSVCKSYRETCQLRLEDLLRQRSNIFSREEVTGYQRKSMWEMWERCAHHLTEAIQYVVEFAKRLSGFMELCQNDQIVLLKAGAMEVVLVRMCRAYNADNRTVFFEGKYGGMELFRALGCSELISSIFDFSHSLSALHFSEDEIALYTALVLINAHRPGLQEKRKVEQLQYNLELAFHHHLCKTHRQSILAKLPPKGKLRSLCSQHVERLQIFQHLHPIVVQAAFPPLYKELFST
The assay can be described thus: Gal4-RORγ Luciferase Reporter Assay in HEK-293T Cells. The assay is classed as cell-based. The note with it: HEK-293 cells, 2 μM ursolic acid. On the procedure:
Assay procedures and results are described below.
In the following protocol, HEK-293 cells were transfected with a construct comprising the Gal4 DNA binding domain fused to the ligand binding domain of RORγ (Gal4-RORγ-LBD) in a pcDNA3.1neo plasmid, and also with a reporter construct comprising pGL4.31 Gal4-luciferase (Promega). Control cells were prepared similarly using empty pcDNA3.1neo and pGL4.31 vectors.
Trans-IT reagent (Mirus, 60 μL) at room temperature was added drop wise to OptiMEM (Invitrogen, 1.5 ml). This reagent mixture was mixed by inversion then incubated for 5 to 30 minutes at room temperature. It then was added to a solution of both expression vectors (5 μg each), mixed, and incubated at room temperature for about 20 minutes. HEK-293 cells were harvested from incubation flasks by removing the media, treating with TrypLE Express (Invitrogen), and incubating until the cells detached from the bottom of the flask (approximately 2-5 minutes). 10 Million cells were collected by centrifugation and re-suspended in 10 mL of Dulbecco's Modified Eagle Medium, High Glucose (DMEM, Invitrogen) containing 10% Fetal Bovine Serum and 100 IU each of penicillin and streptomycin. The re-suspended cells and the transfection mixture were added to a T75 flask, mixed and incubated overnight at 37° C. and 5% CO2.
The cells were harvested as described above, counted, and centrifuged to obtain the desired number of cells, then re-suspended in complete growth media at 0.75×10^6 cells/mL. The RORγ antagonist, ursolic acid, was added to the cells at a final concentration of 2 μM. Cells were plated at 20 μL of cell suspension/well (10,000-15,000 cells/well) in white tissue culture treated 384 well plates. Test compounds were dissolved at 10 mM in DMSO then diluted into complete growth medium to 5× the final intended test concentration. These drug stock solutions, 5 μL/well were added to the tissue culture plate. The final DMSO concentration was 0.2%. The plates were briefly centrifuged then incubated overnight at 37° C. and 5% CO2. To conduct the assay, the tissue culture plates were allowed to equilibrate to room temperature and One-Glo luciferase reagent (Promega, 25 μL/well) was added. The plates were briefly centrifuged then incubated at room temperature for 10 minutes. The luciferase intensity was read on an Envision plate reader (Perkin Elmer). […] The luciferase signal in the absence of ursolic acid or test compound is defined at 100. The Max Response is the upper plateau in the signal as determined by line-fit using a 4-parameter logistic model in PRISM (GraphPad).
Background: A reporter such as luciferase makes a cellular process visible.
One may read the EC50 as the concentration giving half of the maximal effect. With `O=C(O)C1(C[C@H]2CN(S(=O)(=O)c3cncc(C(F)(F)F)c3)c3cc(-c4cc(F)ccc4F)ccc3O2)COC1` [Compound 51K, (S)-3-((6-(2,5-difluorophenyl)-4-((5-(trifluoromethyl)pyridin-3-yl)sulfonyl)-3,4-dihydro-2H-benzo[b][1,4]oxazin-2-yl)methyl)oxetane-3-carboxylic acid], the EC50 was in the range of 500 to 5000 nM and the “Gal4-RORγ Assay Max Response” value is given as “*** (The symbol “***” indicates a value in the range of greater than 150 to 200)”.
Taken in the same sequence, the figures for `O=C(O)C1(C[C@H]2CN(S(=O)(=O)c3cccc(C(F)(F)F)c3)c3cc(-c4cc(F)cc(F)c4F)ccc3O2)CCOCC1` [Compound 78T, (S)-4-((4-((3-(trifluoromethyl)-phenyl)sulfonyl)-6-(2,3,5-trifluorophenyl)-3,4-dihydro-2H-benzo[b][1,4]oxazin-2-yl)methyl)tetrahydro-2H-pyran-4-carboxylic acid] were under 500 nM and “** (The symbol “**” indicates a value in the range of greater than 90 to 150)”.
On the same counts, the results for `CC(=O)N[C@H]1C[C@@H]([C@H]2CN(S(=O)(=O)c3cccc(C(F)(F)F)c3)c3cc(-c4cc(F)ccc4F)ccc3O2)C1` [Compound 60L, N-((1R,3s)-3-((S)-6-(2,5-difluorophenyl)-4-((3-(trifluoro-methyl)phenyl)sulfonyl)-3,4-dihydro-2H-benzo[b][1,4]-oxazin-2-yl)cyclobutyl)-acetamide] are under 500 nM and “** (The symbol “**” indicates a value in the range of greater than 90 to 150)”.
As to `O=C(O)C1(C[C@H]2CN(S(=O)(=O)c3cccc(C(F)(F)F)c3)c3cc(-c4cc(F)cc(OC(F)F)c4F)ccc3O2)CCOCC1` [Compound 78V, (S)-4-((6-(3-(difluoromethoxy)-2,5-difluorophenyl)-4-((3-(trifluoromethyl)phenyl)sulfonyl)-3,4-dihydro-2H-benzo[b][1,4]oxazin-2-yl)methyl)tetrahydro-2H-pyran-4-carboxylic acid], the EC50 is under 500 nM and the “Gal4-RORγ Assay Max Response” value was “** (The symbol “**” indicates a value in the range of greater than 90 to 150)”.
For `CC(C)(O[C@H]1Cc2ccc(-c3cc(F)ccc3F)cc2N(S(=O)(=O)c2cccc(C(F)(F)F)c2)C1)C(=O)O` [Compound 83C, (S)-2-((7-(2,5-difluorophenyl)-1-((3-(trifluoromethyl)phenyl)sulfonyl)-1,2,3,4-tetrahydroquinolin-3-yl)oxy)-2-methylpropanoic acid], the EC50 was in the range of 500 to 5000 nM and the “Gal4-RORγ Assay Max Response” value is reported as “** (The symbol “**” indicates a value in the range of greater than 90 to 150)”.
For `Cc1cc(F)cc(-c2ccc3c(c2)N(S(=O)(=O)c2cccc(C(F)(F)F)c2)C[C@H](CC2(C(=O)O)CCOCC2)O3)c1` [Compound 78Q, (S)-4-((6-(3-fluoro-5-methyl-phenyl)-4-((3-(trifluoromethyl)-phenyl)sulfonyl)-3,4-dihydro-2H-benzo[b][1,4]oxazin-2-yl)methyl)tetrahydro-2H-pyran-4-carboxylic acid], the EC50 is under 500 nM and the “Gal4-RORγ Assay Max Response” value was “** (The symbol “**” indicates a value in the range of greater than 90 to 150)”.
Taken in the same sequence, the figures for `O=C(O)C1(C[C@H]2CN(S(=O)(=O)c3cccc(C(F)(F)F)c3)c3cc(-c4cccc(F)c4Cl)ccc3O2)CCOCC1` [Compound 78M, (S)-4-((6-(2-chloro-3-fluoro-phenyl)-4-((3-(trifluoromethyl)-phenyl)sulfonyl)-3,4-dihydro-2H-benzo[b][1,4]oxazin-2-yl)methyl)tetrahydro-2H-pyran-4-carboxylic acid] were under 500 nM and “*** (The symbol “***” indicates a value in the range of greater than 150 to 200)”.
`O=C(O)C1(C[C@H]2CN(S(=O)(=O)c3cccc(C(F)(F)F)c3)c3cc(-c4cc(Cl)cc(F)c4F)ccc3O2)CCOCC1` [Compound 78W, (S)-4-((6-(5-chloro-2,3-difluorophenyl)-4-((3-(trifluoromethyl)phenyl)sulfonyl)-3,4-dihydro-2H-benzo[b][1,4]oxazin-2-yl)methyl)tetrahydro-2H-pyran-4-carboxylic acid]: the EC50 is under 500 nM and the “Gal4-RORγ Assay Max Response” value is “** (The symbol “**” indicates a value in the range of greater than 90 to 150)”.
For the molecule `COc1cc(F)cc(-c2ccc3c(c2)N(S(=O)(=O)c2cccc(C(F)(F)F)c2)C[C@H](CC2(C(=O)O)CCOCC2)O3)c1F` [Compound 78S, (S)-4-((6-(2,5-difluoro-3-methoxyphenyl)-4-((3-(trifluoro-methyl)phenyl)sulfonyl)-3,4-dihydro-2H-benzo[b][1,4]oxazin-2-yl)methyl)tetrahydro-2H-pyran-4-carboxylic acid], the concentration giving a half-maximal response (EC50) was under 500 nM and the “Gal4-RORγ Assay Max Response” value is “** (The symbol “**” indicates a value in the range of greater than 90 to 150)”.
On the same counts, the results for `COc1cc(F)c(F)c(-c2ccc3c(c2)N(S(=O)(=O)c2cccc(C(F)(F)F)c2)C[C@H](CC2(C(=O)O)CCOCC2)O3)c1` [Compound 78U, (S)-4-((6-(2,3-difluoro-5-methoxyphenyl)-4-((3-(trifluoromethyl)phenyl)sulfonyl)-3,4-dihydro-2H-benzo[b][1,4]oxazin-2-yl)methyl)tetrahydro-2H-pyran-4-carboxylic acid] are under 500 nM and “** (The symbol “**” indicates a value in the range of greater than 90 to 150)”.
On to `O=C(O)[C@]1(C[C@H]2CN(S(=O)(=O)c3cccc(C(F)(F)F)c3)c3cc(-c4cc(F)cc(OC(F)F)c4)ccc3O2)C[C@@H](O)C1` [Compound 68, (1r,3R)-1-(((S)-6-(3-(difluoromethoxy)-5-fluorophenyl)-4-((3-(trifluoromethyl)phenyl)sulfonyl)-3,4-dihydro-2H-benzo[b][1,4]oxazin-2-yl)methyl)-3-hydroxycyclobutane-1-carboxylic acid], for which the EC50 is under 500 nM and the “Gal4-RORγ Assay Max Response” value was “** (The symbol “**” indicates a value in the range of greater than 90 to 150)”.
With `C[C@]1(C(=O)O)C[C@@H](C[C@H]2CN(S(=O)(=O)c3cccc(C(F)(F)F)c3)c3cc(-c4cc(F)cc(OC(F)F)c4)ccc3O2)C1` [Compound 70, (1R,3s)-3-(((S)-6-(3-(difluoromethoxy)-5-fluorophenyl)-4-((3-(trifluoromethyl)phenyl)sulfonyl)-3,4-dihydro-2H-benzo[b][1,4]oxazin-2-yl)methyl)-1-methylcyclobutane-1-carboxylic acid], the EC50 was 500 to 5000 nM and the “Gal4-RORγ Assay Max Response” value is given as “*** (The symbol “***” indicates a value in the range of greater than 150 to 200)”.
In the case of `O=C(O)C1(C[C@H]2CN(S(=O)(=O)c3cccc(C(F)(F)F)c3)c3cc(-c4cccc(F)c4F)ccc3O2)CCOCC1` [Compound 78P, (S)-4-((6-(2,3-difluorophenyl)-4-((3-(trifluoromethyl)phenyl)-sulfonyl)-3,4-dihydro-2H-benzo[b][1,4]oxazin-2-yl)methyl)tetrahydro-2H-pyran-4-carboxylic acid], the 50% effective concentration (EC50) is under 500 nM and the “Gal4-RORγ Assay Max Response” value is “** (The symbol “**” indicates a value in the range of greater than 90 to 150)”.

The assay is the same for the next values; noted with them: HEK-293 cells, luciferase reporter, with 2 μM ursolic acid.
Turning to `CC(C)c1cccc(S(=O)(=O)N2C[C@H](CC(C)(C)C(=O)O)Oc3ccc(-c4cc(F)ccc4F)cc32)c1` [Compound 32M, (S)-3-(6-(2,5-difluorophenyl)-4-((3-isopropylphenyl)sulfonyl)-3,4-dihydro-2H-benzo[b][1,4]oxazin-2-yl)-2,2-dimethylpropanoic acid], the concentration for a half-maximal effect (EC50) is 500 to 5000 nM and the “Gal4-RORγ Assay Max Response” value is on record as “** (The symbol “**” indicates a value in the range of greater than 90 to 150)”.
